The assay concerns the target T1, E. coli DdlB enzyme (D-alanine:D-alanine ligase) (Escherichia coli, UniProt P07862).
T1 construct: made in house; host or cells: E. coli
In words: biochemical. The conditions noted are these: read-out: DdlB RA; for remaining activity at 1700 µM: tested concentration 1.7 mM; for remaining activity at 1900 µM: tested concentration 1.9 mM; for remaining activity at 2100 µM: tested concentration 2.1 mM; for remaining activity at 2000 µM: tested concentration 2.0 mM; for remaining activity at 2200 µM: tested concentration 2.2 mM; for remaining activity at 1800 µM: tested concentration 1.8 mM; for remaining activity at 2400 µM: tested concentration 2.4 mM; for remaining activity at 3000 µM: tested concentration 3.0 mM; for remaining activity at 2300 µM: tested concentration 2.3 mM; for remaining activity at 2900 µM: tested concentration 2.9 mM.

[1] abbreviates: residual activity of DdlB, fragment library screening, tested concentration 2.5 mM.

Read-outs that look alike come from different tables or passages of the source.

Take `O=C(COc1cccc(Br)c1)Nc1nnc[nH]1` [Compound 4491-0732]: the remaining activity at 1700 µM worked out at 94%.

As to `NS(=O)(=O)c1ccccc1` [Compound 0402-0167], the remaining activity at 3200 µM (tested concentration 3.2 mM) is 96%.

For `CCc1nc(NCc2ccncc2)ncc1C(=O)O` [Compound S272-1779], for the setting “fragment library screening”, the remaining activity at 1900 µM turned out to be 93%.

On to `CC(=O)NCCc1ccc(S(N)(=O)=O)cc1` [Compound 2332-0866], for which the remaining activity at 2100 µM came out at 94%.

As to `O=C(O)c1ccccc1C(=O)NCc1cccnc1` [Compound 1514-0633], the remaining activity at 2000 µM (fragment library screening) is 93%.

`O=C1CCC2(CNC(=O)C3CCOCC3)CCCC=C2N1` (stereo not drawn) [Compound S570-0163]: the remaining activity at 2100 µM (residual activity) amounted to 94%.

Take `Cn1ncc(N2CCC[C@@H](C(=O)O)C2)cc1=O` [Compound P207-8929]: the remaining activity at 2100 µM is 92%.

As for `CC(=O)N1CCC(CCc2noc(C)n2)C1` (stereo not drawn) [SA67-1016], the remaining activity at 2700 µM (tested concentration 2.7 mM) was found to be 93%.

Consider `Oc1cccc(C(F)(F)F)c1` [FLD173], for which, under setting [1], the remaining activity at 2500 µM is 91%.

`Cc1ccc([C@@H](CC(=O)O)c2ccco2)cc1` [Compound 5664-0388]: the remaining activity at 2200 µM amounted to 100%.

Consider `CC(C)Oc1c(OC(C)C)c(=O)c1=O` [FF20-3460], for which the remaining activity at 2500 µM (tested concentration 2.5 mM) was 72%.

As to `Oc1cc(-c2ccncc2)n[nH]1` [Compound 8011-7794], the remaining activity at 3100 µM (tested concentration 3.1 mM) was 77%.

For the molecule `COC(=O)N1C2C=CC(C2)C1(C(F)(F)F)C(F)(F)F` (stereo not drawn) [Compound 8007-6774], the remaining activity at 2100 µM (residual activity) came out at 89%.

In the case of `CC(C)c1nnc(-c2cnccn2)o1` [Compound Z632-7479], the remaining activity at 2600 µM (tested concentration 2.6 mM) turned out to be 105%.

For `O=c1c(-c2ccc(Cl)cc2)c(N2CCOCC2)c1=O` [Compound E786-0171], the remaining activity at 1800 µM came out at 141%.

With `O=C(O)C#CC12CC3CC(CC(C3)C1)C2` [Compound 8009-2654], the remaining activity at 2400 µM came to 112%.

Turning to `CCOC(=O)c1[nH]cnc1C` [FLD106], the remaining activity at 2500 µM under setting [1] was found to be 100%.

As to `CC1(C)Cc2noc(N)c2C(C)(C)N1O` [Compound 8013-4059], the remaining activity at 2200 µM was found to be 96%.

Consider `O=C(Nc1nc[nH]n1)c1ccc(Cl)cc1` [Compound 8003-7117], for which, under “residual activity”, the remaining activity at 2200 µM was found to be 103%.

In the case of `Cn1nc(C(=O)O)c2c1CCOC2` [Compound P207-8979], the remaining activity at 3000 µM (residual activity of DdlB, fragment library screening) is 88%.

For the molecule `Cc1ccc(C(C)C)cc1S(=O)(=O)O` [Compound 8020-8310], the remaining activity at 2300 µM was determined as 91%.

In the case of `COc1cc(O)cc(OC)c1OC` [FLD027], the remaining activity at 2500 µM under setting [1] is 98%.

With `Oc1cccc(-c2ccccc2)c1` [FLD076], the remaining activity at 2500 µM under setting [1] was found to be 98%.

For the molecule `NC(=O)NCC(=O)N[C@H](Cc1c[nH]cn1)C(=O)O` [Compound 8012-0410], the remaining activity at 2000 µM (fragment library screening) was 91%.

As to `Cc1cccc(N)c1C#N` [FLD086], the remaining activity at 2500 µM under setting [1] is 100%.

Regarding `Nc1ncccc1O` [FLD125], under setting [1], the remaining activity at 2500 µM came out at 97%.

Consider `Cc1ccc(C)c(S(=O)(=O)O)c1` [FLD115], for which the remaining activity at 2500 µM under setting [1] stood at 94%.

Take `CCCNc1c(N2CCCC(C(=O)OCC)C2)c(=O)c1=O` (stereo not drawn) [Compound C738-0118]: the remaining activity at 1700 µM was 108%.

Consider `O=C(O)c1[nH]c2ccc(F)cc2c1Br` [Compound 8020-2406], for which, for the setting “residual activity”, the remaining activity at 1900 µM was determined as 89%.

On to `O=C(O)Cn1ccc(=O)[nH]c1=O` [Compound D702-0091], for which the remaining activity at 2900 µM worked out at 89%.

With `NCc1ccccc1Cl` [FLD174], the remaining activity at 2500 µM under setting [1] is 100%.

As for `NS(=O)(=O)c1ccc(Cl)s1` [FLD067], the remaining activity at 2500 µM under setting [1] is 100%.

For `Cc1nnc(C2CCN(C(=O)c3ccco3)CC2)[nH]1` [Compound T630-1922], the remaining activity at 1900 µM (residual activity) came out at 58%.

Take `CC(C)(C(=O)O)C1CCOCC1` [Compound S424-0502]: the remaining activity at 2900 µM is 98%.

As to `Cc1[nH]c(N)c(C#N)c1C` [Compound 8018-8696], the remaining activity at 4400 µM (residual activity of DdlB, fragment library screening, tested concentration 4.4 mM) stood at 98%.

With `[C-]#[N+]CS(=O)(=O)c1ccc(C)cc1` [FLD035], the remaining activity at 2500 µM was 100%.

Regarding `O=C1CCC(C(=O)O)N1` (stereo not drawn) [FLD028], the remaining activity at 2500 µM under setting [1] is 100%.

In the case of `O=c1[nH][nH]c2ccccc12` [FLD002], the remaining activity at 2500 µM under setting [1] is 89%.

As to `O=C(O)c1ccncc1F` [FLD151], under setting [1], the remaining activity at 2500 µM is 98%.

For the molecule `O=C(O)Cn1nnc(-c2ccccc2Cl)n1` [Compound 8007-4998], the remaining activity at 2100 µM is 93%.

Regarding `Cc1cc(O)n(-c2nnn[nH]2)n1` [Compound 8016-1033], the remaining activity at 3000 µM was 80%.

`Cc1cc(C2CCCN2C(=O)c2ccc(F)c(F)c2)on1` (stereo not drawn) [Compound Z632-2808]: the remaining activity at 1700 µM (residual activity) worked out at 98%.

For the molecule `CC1(C)CC(=O)c2cnc(NC3CC3)nc2C1` [Compound Y600-1530], the remaining activity at 2400 µM amounted to 89%.

In the case of `Cc1nn(C)cc1-c1cc(C(=O)O)n[nH]1` [Compound Y503-2347], the remaining activity at 2400 µM was determined as 95%.

`Oc1cccc2[nH]ccc12` [FLD010]: under setting [1], the remaining activity at 2500 µM worked out at 100%.

As for `COC(=O)c1nnn(-c2ccccc2)c1O` [Compound 8017-3559], the remaining activity at 2300 µM was found to be 104%.

For `O=C(O)Cc1ccncc1` [FLD055], the remaining activity at 2500 µM under setting [1] was 96%.

On to `Cc1cccc(Cc2n[nH]c(CC(=O)NC3CCCC3)n2)c1` [Compound P496-1655], for which the remaining activity at 1700 µM is 97%.

Take `O=C1CCn2ncnc2N1` [Compound Y021-0743]: the remaining activity at 3600 µM (residual activity of DdlB, fragment library screening, tested concentration 3.6 mM) is 98%.

For the molecule `O=C1CC2CS(=O)(=O)CC2N1C1CCCCC1` (stereo not drawn) [Compound 8013-3540], the remaining activity at 2100 µM was found to be 82%.

For `Oc1nonc1N1CCOCC1` [Compound 8018-8552], the remaining activity at 2900 µM amounted to 92%.

For the molecule `N#Cc1c(N)cccc1F` [FLD137], the remaining activity at 2500 µM under setting [1] came out at 98%.

Turning to `NS(=O)(=O)c1ccc(CNC(=O)C2CCCO2)cc1` (stereo not drawn) [Compound Y030-8649], the remaining activity at 1800 µM stood at 97%.

Consider `O=C(O)c1ncoc1-c1ccc2c(c1)OCCO2` [Compound 8020-3638], for which the remaining activity at 2000 µM (residual activity) was 62%.

Regarding `Nc1ccc(S(=O)(=O)O)cc1` [Compound 8001-1265], the remaining activity at 2900 µM came out at 95%.

Consider `Nc1ccc(Cl)nn1` [FLD052], for which the remaining activity at 2500 µM under setting [1] is 96%.

As for `Nc1nnc(C2CC2)s1` [FLD126], under setting [1], the remaining activity at 2500 µM was 80%.

For the molecule `Cc1ccc(O)c(C(=O)O)c1` [FLD072], the remaining activity at 2500 µM under setting [1] came out at 99%.

As for `OCCc1ccc(Cl)cc1` [FLD160], under setting [1], the remaining activity at 2500 µM came to 92%.

Take `O=C(c1ccco1)N1CCCCC1c1nnc(C2CC2)[nH]1` (stereo not drawn) [Compound M754-1192]: the remaining activity at 1700 µM (residual activity) was 90%.

For `Cc1n[nH]c([C@@H]2CC(F)(F)CN2C2CCCCCC2)n1` [SB35-1022], the remaining activity at 1900 µM (residual activity) came out at 97%.

As for `Cc1ccc(C(=O)CC2(O)C(=O)Nc3ccccc32)c(C)c1` (stereo not drawn) [Compound 8010-6588], the remaining activity at 1700 µM was found to be 93%.

Take `NC(=O)c1cccnc1` [FLD031]: the remaining activity at 2500 µM under setting [1] turned out to be 100%.

Take `CCc1ccc(B(O)O)cc1` [Compound 0054-0178]: the remaining activity at 3300 µM (tested concentration 3.3 mM) stood at 104%.

As to `Cc1c(C(=O)O)nnn1-c1ccc2c(c1)CCC2` [Compound T640-0079], the remaining activity at 2100 µM is 92%.

As to `NS(=O)(=O)c1ccc(NC(=O)CCC2CCCC2)cc1` [Compound Y204-2561], the remaining activity at 1700 µM came out at 87%.
